Data on 2 compounds can be found in EP1701623B1, “METHODS FOR WASHING POULTRY DURING PROCESSING WITH MEDIUM CHAIN PEROXYCARBOXYLIC ACID COMPOSITIONS” (ECOLAB INC., priority 2004, dated 2005).

One experiment relates to Bacterial Spores. The experiment in a line: Antimicrobial activity against bacterial spores versus conventional compositions. The conditions noted are these: 0.5 min, pH 3.32, 35%. The class given is cell-based. The method, then: (§1) Antimicrobial activity was determined according to two well established methods. The first method was the procedure set out in Germicidal and Detergent Sanitizing Action of Disinfectants, Official Methods of Analysis of the Association of Official Analytical Chemists, paragraph 960.09 and applicable sections, 15th Edition, 1990 (EPA Guideline 91-2). The second method was the procedure described in A.O.A.C. Use Dilution Methods, Official Methods of Analysis of the Association of Official Analytical Chemists, paragraph 955.14 and applicable sections, 15th Edition, 1990 (EPA Guideline 91-2). Briefly, antimicrobial activity of the present compositions was determined by exposing a one mL aliquot containing the target microorganism to 99 mL of the desired concentration of the test substance at the desired temperature. After the specified contact time, one mL of the test solution containing the microorganism was neutralized and enumerated for survivors.

Another experiment relates to S. aureus. The experiment in a line: Antimicrobial activity, AOAC sanitizing/use dilution suspension test. Type of experiment: cell-based. The conditions noted are these: Staphylococcus aureus. The method, then: as §1

Some results are limits rather than exact numbers.

Regarding `OO` [Composition H2O2, hydrogen peroxide], the log reduction at 35 % with Bacterial Spores (40 °C, 30 sec) was 1.19; in the experiment on Bacterial Spores (40 °C, 60 sec), 2.94; in the experiment on Bacterial Spores (40 °C, 120 sec), over 6.3; in the experiment with Bacterial Spores (60 °C, 10 sec), 1.59; with Bacterial Spores (60 °C, 20 sec), 4.85; in the experiment on Bacterial Spores (60 °C, 30 sec), 4.89. Further, the log reduction at 35 % in the experiment on Bacterial Spores (80 °C, 10 sec) is over 6.3; in the experiment with Bacterial Spores (80 °C, 20 sec), over 6.3; in the experiment with Bacterial Spores (80 °C, 30 sec), over 6.3.

Turning to `CCCCCCCC(=O)OO` [Pure POOA Crystals, peroxyoctanoic acid], the log reduction at 5 µg/mL in the experiment on S. aureus (concentration of 5 ppm and pH of ∼5, Table 25, read-out: log reductions of Staphylococcus aureus) was 5. Moreover, the log reduction at 11 µg/mL in the experiment with S. aureus (pH 6.1, pH of 6.1, 11 ppm of peroxyoctanoic acid (POOA), Table 13 (composition K), read-out: reducing S. aureus) was over 7.04.
